Biological target: T1, CSNK1G3 (Homo sapiens, UniProt Q9Y6M4)
T1 construct: purchased KinomeScan, a division of Ambit Biosciences
Assay: KinomeScan competition binding assay
Conditions: 10 μM compound
Summary of the method: (§1)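 Test compound competes with an immobilized, ATP-site-directed ligand for binding to DNA-tagged kinase. Kinase remaining on the ligand is quantified by qPCR of the DNA tag. Values are reported as percent of control binding or as binding constants (Kd).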

Row | Structure (SMILES) | POC ligand binding, CSNK1G3
1 | N#Cc1ccc2ncnc(NCCc3ccc4ccccc4c3)c2c1 [compound 26] | 50 POC
2 | CC(C)CNc1ncnc2ccc(C(F)(F)F)cc12 [compound 45] | 50 POC

Biological target: T2, SLK (Homo sapiens, UniProt Q9H2G2)
T2 construct: purchased KinomeScan, a division of Ambit Biosciences
Assay: KinomeScan competition binding assay
Conditions: 10 μM compound
Summary of the method: as §1

T2 sequence (Q9H2G2 whole entry): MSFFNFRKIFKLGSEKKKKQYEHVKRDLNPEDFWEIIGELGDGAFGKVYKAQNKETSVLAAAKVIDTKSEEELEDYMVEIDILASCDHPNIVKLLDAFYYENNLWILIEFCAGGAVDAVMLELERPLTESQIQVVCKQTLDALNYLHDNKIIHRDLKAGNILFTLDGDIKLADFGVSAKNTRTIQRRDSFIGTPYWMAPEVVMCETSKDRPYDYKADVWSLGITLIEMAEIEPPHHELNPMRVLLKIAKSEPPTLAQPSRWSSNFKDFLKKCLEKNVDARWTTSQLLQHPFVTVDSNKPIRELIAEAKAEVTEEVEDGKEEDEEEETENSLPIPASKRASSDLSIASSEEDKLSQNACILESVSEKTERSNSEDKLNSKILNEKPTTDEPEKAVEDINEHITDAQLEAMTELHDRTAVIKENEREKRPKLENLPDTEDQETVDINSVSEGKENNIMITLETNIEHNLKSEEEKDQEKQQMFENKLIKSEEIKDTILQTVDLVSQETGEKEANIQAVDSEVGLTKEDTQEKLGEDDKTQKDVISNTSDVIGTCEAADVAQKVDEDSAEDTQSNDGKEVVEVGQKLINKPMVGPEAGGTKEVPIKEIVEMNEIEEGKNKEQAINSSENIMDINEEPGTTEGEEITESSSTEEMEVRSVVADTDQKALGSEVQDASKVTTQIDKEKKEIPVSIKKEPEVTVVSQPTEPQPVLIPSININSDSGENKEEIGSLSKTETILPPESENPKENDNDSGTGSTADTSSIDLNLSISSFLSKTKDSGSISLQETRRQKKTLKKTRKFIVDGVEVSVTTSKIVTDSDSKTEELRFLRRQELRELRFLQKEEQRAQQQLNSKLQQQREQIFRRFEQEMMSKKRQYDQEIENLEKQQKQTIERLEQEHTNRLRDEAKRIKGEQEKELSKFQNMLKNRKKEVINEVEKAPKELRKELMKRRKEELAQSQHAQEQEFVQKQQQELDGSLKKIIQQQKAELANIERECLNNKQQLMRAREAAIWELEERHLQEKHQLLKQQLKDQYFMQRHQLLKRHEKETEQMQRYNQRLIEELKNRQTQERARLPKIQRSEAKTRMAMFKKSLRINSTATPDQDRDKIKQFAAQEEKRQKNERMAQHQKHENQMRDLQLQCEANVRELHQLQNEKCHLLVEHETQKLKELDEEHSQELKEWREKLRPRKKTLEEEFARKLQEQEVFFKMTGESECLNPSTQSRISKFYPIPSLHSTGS

Row | Structure (SMILES) | POC ligand binding, SLK
3 | N#Cc1ccc2ncnc(NCCc3ccc4ccccc4c3)c2c1 [compound 26] | 73 POC
4 | CC(C)CNc1ncnc2ccc(C(F)(F)F)cc12 [compound 45] | 59 POC

Biological target: T3, CLK4 (Homo sapiens, UniProt Q9HAZ1)
T3 construct: purchased KinomeScan, a division of Ambit Biosciences
Assay: KinomeScan competition binding assay
Conditions: 10 μM compound
Summary of the method: as §1

Row | Structure (SMILES) | POC ligand binding, CLK4
5 | N#Cc1ccc2ncnc(NCCc3ccc4ccccc4c3)c2c1 [compound 26] | 26 POC
6 | CC(C)CNc1ncnc2ccc(C(F)(F)F)cc12 [compound 45] | 7.8 POC

Biological target: T4, IRAK1 (Homo sapiens, UniProt P51617)
T4 construct: purchased KinomeScan, a division of Ambit Biosciences
Assay: KinomeScan competition binding assay
Conditions: 10 μM compound
Summary of the method: as §1

Row | Structure (SMILES) | POC ligand binding, IRAK1
7 | N#Cc1ccc2ncnc(NCCc3ccc4ccccc4c3)c2c1 [compound 26] | 89 POC
8 | CC(C)CNc1ncnc2ccc(C(F)(F)F)cc12 [compound 45] | 25 POC

Biological target: T5, MEK5 (Homo sapiens, UniProt Q13163)
T5 construct: purchased KinomeScan, a division of Ambit Biosciences
T5 sequence (Q13163 1-448): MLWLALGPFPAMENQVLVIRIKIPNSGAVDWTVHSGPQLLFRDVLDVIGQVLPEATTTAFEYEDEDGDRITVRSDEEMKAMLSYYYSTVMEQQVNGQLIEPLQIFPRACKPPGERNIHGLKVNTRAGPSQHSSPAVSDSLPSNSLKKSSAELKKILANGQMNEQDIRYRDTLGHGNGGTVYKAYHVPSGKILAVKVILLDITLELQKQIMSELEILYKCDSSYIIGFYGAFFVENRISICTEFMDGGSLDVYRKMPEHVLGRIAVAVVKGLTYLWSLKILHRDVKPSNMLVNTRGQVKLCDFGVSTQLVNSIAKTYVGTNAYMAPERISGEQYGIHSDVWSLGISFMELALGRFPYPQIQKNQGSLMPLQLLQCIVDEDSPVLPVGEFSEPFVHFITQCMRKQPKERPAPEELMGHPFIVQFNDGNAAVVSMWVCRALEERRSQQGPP
Assay: KinomeScan competition binding assay
Conditions: 10 μM compound
Summary of the method: as §1

Row | Structure (SMILES) | POC ligand binding, MEK5
9 | N#Cc1ccc2ncnc(NCCc3ccc4ccccc4c3)c2c1 [compound 26] | 61 POC
10 | CC(C)CNc1ncnc2ccc(C(F)(F)F)cc12 [compound 45] | 46 POC

Biological target: T6, EGFR (G719C) (Homo sapiens, UniProt P00533, G719C)
T6 construct: purchased KinomeScan, a division of Ambit Biosciences
Assay: KinomeScan competition binding assay
Conditions: 10 μM compound
Summary of the method: as §1

Row | Structure (SMILES) | POC ligand binding, EGFR (G719C)
11 | N#Cc1ccc2ncnc(NCCc3ccc4ccccc4c3)c2c1 [compound 26] | 68 POC
12 | CC(C)CNc1ncnc2ccc(C(F)(F)F)cc12 [compound 45] | 59 POC

Biological target: T7, MAPKAPK5 (Homo sapiens, UniProt Q8IW41)
T7 construct: purchased KinomeScan, a division of Ambit Biosciences
T7 sequence (Q8IW41 1-473): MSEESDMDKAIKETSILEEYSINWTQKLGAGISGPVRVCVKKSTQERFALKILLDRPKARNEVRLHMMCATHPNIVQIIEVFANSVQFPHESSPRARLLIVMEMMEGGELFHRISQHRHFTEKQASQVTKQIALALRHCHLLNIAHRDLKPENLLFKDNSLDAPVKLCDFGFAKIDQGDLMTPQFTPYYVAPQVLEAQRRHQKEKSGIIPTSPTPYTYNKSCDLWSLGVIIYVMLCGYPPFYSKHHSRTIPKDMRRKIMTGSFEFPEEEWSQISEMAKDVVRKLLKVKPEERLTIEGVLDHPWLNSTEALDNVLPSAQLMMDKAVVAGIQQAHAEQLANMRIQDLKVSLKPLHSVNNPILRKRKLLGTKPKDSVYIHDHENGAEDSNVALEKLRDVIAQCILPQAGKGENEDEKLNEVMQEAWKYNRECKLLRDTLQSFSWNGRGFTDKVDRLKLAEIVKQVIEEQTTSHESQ
Assay: KinomeScan competition binding assay
Conditions: 10 μM compound
Summary of the method: as §1

Row | Structure (SMILES) | POC ligand binding, MAPKAPK5
13 | N#Cc1ccc2ncnc(NCCc3ccc4ccccc4c3)c2c1 [compound 26] | 100 POC
14 | CC(C)CNc1ncnc2ccc(C(F)(F)F)cc12 [compound 45] | 100 POC

Biological target: T8, HIPK3 (Homo sapiens, UniProt Q9H422)
T8 construct: purchased KinomeScan, a division of Ambit Biosciences
Assay: KinomeScan competition binding assay
Conditions: 10 μM compound
Summary of the method: as §1

T8 sequence (Q9H422 whole entry): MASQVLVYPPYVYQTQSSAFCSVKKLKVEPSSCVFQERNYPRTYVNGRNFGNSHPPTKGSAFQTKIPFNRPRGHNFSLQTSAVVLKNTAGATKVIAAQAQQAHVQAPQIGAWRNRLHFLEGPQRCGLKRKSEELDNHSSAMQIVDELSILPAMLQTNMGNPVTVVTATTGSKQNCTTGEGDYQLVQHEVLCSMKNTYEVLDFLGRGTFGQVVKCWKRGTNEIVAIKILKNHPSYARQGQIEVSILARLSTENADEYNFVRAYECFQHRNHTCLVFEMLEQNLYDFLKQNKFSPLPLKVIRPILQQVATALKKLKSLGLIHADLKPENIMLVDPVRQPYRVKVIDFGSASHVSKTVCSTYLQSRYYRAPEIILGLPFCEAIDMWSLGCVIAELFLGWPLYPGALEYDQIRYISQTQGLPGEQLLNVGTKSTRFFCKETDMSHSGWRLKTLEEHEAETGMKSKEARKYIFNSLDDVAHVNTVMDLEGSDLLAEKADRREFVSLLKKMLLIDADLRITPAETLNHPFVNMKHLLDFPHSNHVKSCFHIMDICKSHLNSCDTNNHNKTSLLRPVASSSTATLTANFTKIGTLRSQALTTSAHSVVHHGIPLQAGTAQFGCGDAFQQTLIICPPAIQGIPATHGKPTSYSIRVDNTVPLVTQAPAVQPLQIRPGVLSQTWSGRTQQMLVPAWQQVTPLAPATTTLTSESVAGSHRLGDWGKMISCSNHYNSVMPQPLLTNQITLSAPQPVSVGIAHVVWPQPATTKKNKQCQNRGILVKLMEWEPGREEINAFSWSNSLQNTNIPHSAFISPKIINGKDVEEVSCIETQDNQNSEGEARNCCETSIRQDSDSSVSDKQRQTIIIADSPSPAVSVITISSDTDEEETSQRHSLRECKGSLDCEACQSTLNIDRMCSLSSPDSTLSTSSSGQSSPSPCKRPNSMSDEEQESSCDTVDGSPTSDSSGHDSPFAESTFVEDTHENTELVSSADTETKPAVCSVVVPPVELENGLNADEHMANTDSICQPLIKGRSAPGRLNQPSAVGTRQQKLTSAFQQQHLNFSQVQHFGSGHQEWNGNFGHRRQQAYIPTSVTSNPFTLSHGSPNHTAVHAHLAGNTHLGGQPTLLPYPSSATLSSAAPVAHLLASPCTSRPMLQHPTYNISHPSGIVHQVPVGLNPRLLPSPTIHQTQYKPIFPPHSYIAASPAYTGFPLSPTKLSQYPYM

Row | Structure (SMILES) | POC ligand binding, HIPK3
15 | N#Cc1ccc2ncnc(NCCc3ccc4ccccc4c3)c2c1 [compound 26] | 66 POC
16 | CC(C)CNc1ncnc2ccc(C(F)(F)F)cc12 [compound 45] | 28 POC

Biological target: T9, CIT (Homo sapiens, UniProt O14578)
T9 construct: purchased KinomeScan, a division of Ambit Biosciences
Assay: KinomeScan competition binding assay
Conditions: 10 μM compound
Summary of the method: as §1

Row | Structure (SMILES) | POC ligand binding, CIT
17 | N#Cc1ccc2ncnc(NCCc3ccc4ccccc4c3)c2c1 [compound 26] | 40 POC
18 | CC(C)CNc1ncnc2ccc(C(F)(F)F)cc12 [compound 45] | 50 POC

Biological target: T10, HIPK2 (Homo sapiens, UniProt Q9H2X6)
T10 construct: purchased KinomeScan, a division of Ambit Biosciences
Assay: KinomeScan competition binding assay
Conditions: 10 μM compound
Summary of the method: as §1

Row | Structure (SMILES) | POC ligand binding, HIPK2
19 | N#Cc1ccc2ncnc(NCCc3ccc4ccccc4c3)c2c1 [compound 26] | 73 POC
20 | CC(C)CNc1ncnc2ccc(C(F)(F)F)cc12 [compound 45] | 20 POC

Biological target: T11, BTK (Homo sapiens, UniProt Q06187)
T11 construct: purchased KinomeScan, a division of Ambit Biosciences
Assay: KinomeScan competition binding assay
Conditions: 10 μM compound
Summary of the method: as §1

Row | Structure (SMILES) | POC ligand binding, BTK
21 | N#Cc1ccc2ncnc(NCCc3ccc4ccccc4c3)c2c1 [compound 26] | 100 POC
22 | CC(C)CNc1ncnc2ccc(C(F)(F)F)cc12 [compound 45] | 100 POC

Biological target: T12, PIK3CA (I800L) (Homo sapiens, UniProt P42336, I800L)
T12 construct: purchased KinomeScan, a division of Ambit Biosciences
Assay: KinomeScan competition binding assay
Conditions: 10 μM compound
Summary of the method: as §1

T12 sequence (P42336 whole entry I800L): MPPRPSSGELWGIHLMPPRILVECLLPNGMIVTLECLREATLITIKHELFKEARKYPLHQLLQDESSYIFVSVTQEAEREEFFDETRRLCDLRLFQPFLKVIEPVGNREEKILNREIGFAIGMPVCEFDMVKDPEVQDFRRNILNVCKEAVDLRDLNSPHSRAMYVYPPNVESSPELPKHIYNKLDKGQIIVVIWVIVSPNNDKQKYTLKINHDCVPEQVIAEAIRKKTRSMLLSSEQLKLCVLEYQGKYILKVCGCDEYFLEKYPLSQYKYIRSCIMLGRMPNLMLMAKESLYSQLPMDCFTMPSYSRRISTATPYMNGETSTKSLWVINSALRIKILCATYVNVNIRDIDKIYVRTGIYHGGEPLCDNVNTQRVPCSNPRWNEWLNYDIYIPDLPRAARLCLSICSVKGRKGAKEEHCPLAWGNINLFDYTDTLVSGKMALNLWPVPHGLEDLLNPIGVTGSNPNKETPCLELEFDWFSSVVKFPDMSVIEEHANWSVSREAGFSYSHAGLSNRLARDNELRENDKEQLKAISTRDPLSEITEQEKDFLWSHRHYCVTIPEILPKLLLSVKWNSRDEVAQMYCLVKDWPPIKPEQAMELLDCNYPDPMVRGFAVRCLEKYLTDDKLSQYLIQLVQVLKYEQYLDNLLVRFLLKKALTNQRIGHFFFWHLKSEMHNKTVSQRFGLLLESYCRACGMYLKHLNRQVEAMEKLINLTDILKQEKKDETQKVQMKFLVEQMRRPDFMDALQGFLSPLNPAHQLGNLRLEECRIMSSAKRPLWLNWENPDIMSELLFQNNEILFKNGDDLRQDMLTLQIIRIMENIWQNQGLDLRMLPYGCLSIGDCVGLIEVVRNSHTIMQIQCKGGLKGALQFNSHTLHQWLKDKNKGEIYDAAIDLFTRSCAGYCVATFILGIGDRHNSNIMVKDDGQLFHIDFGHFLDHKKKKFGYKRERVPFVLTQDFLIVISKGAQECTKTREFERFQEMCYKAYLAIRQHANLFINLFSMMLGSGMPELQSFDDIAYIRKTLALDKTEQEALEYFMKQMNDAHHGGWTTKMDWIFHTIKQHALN

Row | Structure (SMILES) | POC ligand binding, PIK3CA (I800L)
23 | N#Cc1ccc2ncnc(NCCc3ccc4ccccc4c3)c2c1 [compound 26] | 81 POC
24 | CC(C)CNc1ncnc2ccc(C(F)(F)F)cc12 [compound 45] | 83 POC

Biological target: T13, CDK8 (Homo sapiens, UniProt P49336)
T13 construct: purchased KinomeScan, a division of Ambit Biosciences
Assay: KinomeScan competition binding assay
Conditions: 10 μM
Summary of the method: as §1

T13 sequence (P49336 whole entry): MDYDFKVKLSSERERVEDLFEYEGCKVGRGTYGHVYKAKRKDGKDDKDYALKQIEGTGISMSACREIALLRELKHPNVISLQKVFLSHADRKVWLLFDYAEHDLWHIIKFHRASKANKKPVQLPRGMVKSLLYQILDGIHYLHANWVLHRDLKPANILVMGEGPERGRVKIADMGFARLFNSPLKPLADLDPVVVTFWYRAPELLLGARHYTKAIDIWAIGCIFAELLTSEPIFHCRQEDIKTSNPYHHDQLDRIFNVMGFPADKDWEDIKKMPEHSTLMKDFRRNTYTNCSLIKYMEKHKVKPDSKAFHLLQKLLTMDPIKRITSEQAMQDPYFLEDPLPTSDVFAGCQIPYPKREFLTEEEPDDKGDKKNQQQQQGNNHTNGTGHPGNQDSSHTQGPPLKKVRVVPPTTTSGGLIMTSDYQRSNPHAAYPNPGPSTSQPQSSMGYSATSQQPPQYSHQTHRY

Row | Structure (SMILES) | inhibition of CDK8
25 | N#Cc1ccc2ncnc(NCCc3ccc4ccccc4c3)c2c1 [compound 26] | ~100%

Same assay, conditions: 10 μM compound

Row | Structure (SMILES) | POC ligand binding, CDK8
26 | N#Cc1ccc2ncnc(NCCc3ccc4ccccc4c3)c2c1 [compound 26] | 0 POC
27 | CC(C)CNc1ncnc2ccc(C(F)(F)F)cc12 [compound 45] | 37 POC

Same assay, conditions: read-out: CDK8 inhibition (Kd)

Row | Structure (SMILES) | Kd
28 | N#Cc1ccc2ncnc(NCCc3ccc4ccccc4c3)c2c1 [compound 26] | 570 nM

Biological target: T14, PIP5K2C (Homo sapiens, UniProt Q8TBX8)
T14 construct: purchased KinomeScan, a division of Ambit Biosciences
T14 sequence (Q8TBX8 1-421): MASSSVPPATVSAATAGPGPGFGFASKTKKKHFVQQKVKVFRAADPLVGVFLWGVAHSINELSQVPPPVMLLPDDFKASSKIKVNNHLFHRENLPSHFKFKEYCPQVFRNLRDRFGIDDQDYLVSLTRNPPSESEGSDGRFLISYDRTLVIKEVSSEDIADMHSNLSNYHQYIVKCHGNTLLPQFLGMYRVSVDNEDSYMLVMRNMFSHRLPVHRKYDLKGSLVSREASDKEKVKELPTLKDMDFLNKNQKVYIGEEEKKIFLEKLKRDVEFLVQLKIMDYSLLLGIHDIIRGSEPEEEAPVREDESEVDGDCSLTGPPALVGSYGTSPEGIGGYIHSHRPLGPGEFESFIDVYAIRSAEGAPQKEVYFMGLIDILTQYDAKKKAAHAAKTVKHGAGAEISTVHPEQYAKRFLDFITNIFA
Assay: KinomeScan competition binding assay
Conditions: 10 μM compound
Summary of the method: as §1

Row | Structure (SMILES) | POC ligand binding, PIP5K2C
29 | N#Cc1ccc2ncnc(NCCc3ccc4ccccc4c3)c2c1 [compound 26] | 39 POC
30 | CC(C)CNc1ncnc2ccc(C(F)(F)F)cc12 [compound 45] | 60 POC

Biological target: T15, CSNK1G2 (Homo sapiens, UniProt P78368)
T15 construct: purchased KinomeScan, a division of Ambit Biosciences
Assay: KinomeScan competition binding assay
Conditions: 10 μM compound
Summary of the method: as §1

T15 sequence (P78368 whole entry): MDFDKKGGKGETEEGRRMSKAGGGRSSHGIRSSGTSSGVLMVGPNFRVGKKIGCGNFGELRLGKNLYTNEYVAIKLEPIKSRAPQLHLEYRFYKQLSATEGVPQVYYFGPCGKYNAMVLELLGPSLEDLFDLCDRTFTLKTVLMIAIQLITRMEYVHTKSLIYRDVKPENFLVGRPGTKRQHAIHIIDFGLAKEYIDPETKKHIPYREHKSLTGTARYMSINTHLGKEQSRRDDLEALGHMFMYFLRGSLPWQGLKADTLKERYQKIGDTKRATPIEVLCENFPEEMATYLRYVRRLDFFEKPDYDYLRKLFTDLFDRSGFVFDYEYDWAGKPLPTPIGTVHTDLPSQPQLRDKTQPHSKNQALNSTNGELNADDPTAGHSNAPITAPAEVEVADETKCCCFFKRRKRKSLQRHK

Row | Structure (SMILES) | POC ligand binding, CSNK1G2
31 | N#Cc1ccc2ncnc(NCCc3ccc4ccccc4c3)c2c1 [compound 26] | 57 POC
32 | CC(C)CNc1ncnc2ccc(C(F)(F)F)cc12 [compound 45] | 53 POC

Biological target: T16, CLK1 (Homo sapiens, UniProt P49759)
T16 construct: purchased KinomeScan, a division of Ambit Biosciences
Assay: KinomeScan competition binding assay
Conditions: 10 μM compound
Summary of the method: as §1

T16 sequence (P49759 whole entry): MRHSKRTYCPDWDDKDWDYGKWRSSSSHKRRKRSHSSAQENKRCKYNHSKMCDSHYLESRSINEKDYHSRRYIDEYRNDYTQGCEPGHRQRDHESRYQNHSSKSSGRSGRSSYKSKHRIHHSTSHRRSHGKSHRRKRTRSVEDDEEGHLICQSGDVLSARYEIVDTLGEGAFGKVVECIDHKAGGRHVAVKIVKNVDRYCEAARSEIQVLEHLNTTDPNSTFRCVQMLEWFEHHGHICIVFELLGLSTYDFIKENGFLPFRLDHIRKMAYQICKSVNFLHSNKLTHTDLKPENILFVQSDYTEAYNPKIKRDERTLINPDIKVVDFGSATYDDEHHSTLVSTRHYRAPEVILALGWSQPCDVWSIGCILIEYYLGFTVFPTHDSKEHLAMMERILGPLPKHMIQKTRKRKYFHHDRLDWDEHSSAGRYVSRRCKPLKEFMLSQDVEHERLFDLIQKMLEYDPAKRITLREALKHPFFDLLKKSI

Row | Structure (SMILES) | POC ligand binding, CLK1
33 | N#Cc1ccc2ncnc(NCCc3ccc4ccccc4c3)c2c1 [compound 26] | 32 POC
34 | CC(C)CNc1ncnc2ccc(C(F)(F)F)cc12 [compound 45] | 8.4 POC

Source: patent US8598344B2, “CDKI pathway inhibitors and uses thereof” (Senex Biotechnology, priority 2009, dated 2013)
